Data reported in article PMC6965176, “Targeting Forward and Reverse EphB4/EFNB2 Signaling by a Peptide with Dual Functions” (Scientific Reports, 2020).
Non-standard residues stand in square brackets, D forms with d. No end group written: not given here.

Tests used:
RF24_Bev cells = assay: Cell death in bevacizumab-resistant RF24 cells (SYTOX-green flow cytometry); assay type: cell-based; conditions: VEGF + Bev, SYTOX-negative live cells by flow cytometry (Fig. 4C,D)
Procedure: Figure 4 BIDEN-AP–based agents inhibit tube formation and sensitize resistant endothelial cells to anti-VEGF antibody. (A,B) Tube formation by RF24 cells treated with EFNB2-Fc (2 nM) or BIDEN-AP (15 µM) compared to untreated controls (CTL). Representative data from three independent experiments are presented. (A) Representative microphotographs of tubes formed by RF24 cells are shown (n = 3). Images were taken at × 100 magnification. (B) Quantification of the number of nodes per field in three technical replicates. […] (C) Representative flow cytometry plots from three independent experiments of RF24_Bev cells are shown here. SYTOX-negative staining represents the live cell population.
Given the important role of endothelium in adaptive changes with antiangiogenic therapy, we further tested the effects of BIDEN-AP in overcoming resistance to anti-VEGF therapy in RF24 endothelial cells. To do this, we first established a bevacizumab (Bev)-resistant RF24 cell line (RF24_Bev) selected though continuous Bev treatment at low dose ([…]) for 2 weeks. The RF24_Bev cells were maintained at a Bev concentration of […]. Using flow cytometry with SYTOX-green staining, we quantified the live (SYTOX-negative) vs. dead (SYTOX-positive) populations after treatment with BIDEN-AP or CCPM-BIDEN-AP.

EphB4 and Crk1 (MAPK14) = assay: EphB4 and Crk1 phosphorylation in A2780cp20 cells (IP/immunoblot); assay type: cell-based, human; conditions: 50 nM (BIDEN-AP equivalent), 24 h after 16 h serum-free (Fig. S7A)
Excerpt: Next, we determined the phosphorylation of EphB4 and its downstream adaptor protein Crk1 (MAPK14) in lysates from human A2780cp20 ovarian cancer cells by immunoprecipitation with anti-EphB4 and anti-Crk1 antibodies followed by immunoblotting with phospho-specific antibodies. […] In comparison, Alexa647-labeled antagonist TNYL-RAW was excluded.
Figure 2 BIDEN-AP acts as an EphB4 agonist. (A) BIDEN-AP induced phosphorylation of EphB4 and the associated MAPK14 (Crk1). […] The uncropped blots are presented in Supplemental Figure 11. (B) BIDEN-AP inhibited A2780cp20 cell invasion compared to untreated controls (CTL). A modified Boyden transwell chamber coated with Matrigel was used. Representative data from three independent experiments using A2780cp20 cells are presented. Each experiment was repeated in triplicate. Data are shown as mean ± SD. ***p < 0.001 by unpaired, two-sided Student t-test. […]
calculated as Koff/Kon. […]
The capacity of BIDEN-AP to inhibit the binding of EFNB2 to EphB4 was assessed in a competitive binding assay. […] After each injection, the signal from the control flow cell was subtracted and the relative amount of EphB4 bound to EFNB2-Fc was recorded as the net response over the pre-injection baseline level. […]
The protein concentrations were determined by using a BCA Protein Assay Reagent kit (Pierce Biotechnology, Rockford, IL). […]

“CCPM-BIDEN-AP: nanoconjugate of BIDEN-AP with core-crosslinked polymeric micelles (CCPM) (TN[dY]LFSPNGPIARAW; also: conjugated to core-crosslinked polymeric micelles (CCPM))” was tested, and the “re-sensitization of bevacizumab-resistant endothelial cells to Bev” value (RF24_Bev cells) was “re-sensitized these cells to Bev treatment” and the “EphB4 and Crk1 phosphorylation in vitro (agonist activity)” value (EphB4 and Crk1 (MAPK14)) was “potent agonist activity”.
